Measured values published in article PMC9382192, “Combined treatment with epigenetic agents enhances anti-tumor activity of MAGE-D4 peptide-specific T cells by upregulating the MAGE-D4 expression in glioma” (Frontiers in Oncology, 2022).

What was measured:
U87 = assay: Granzyme A and perforin ELISA, T cells with U87; format: cell-based, human; conditions: T cells stimulated by TSA-treated U87, E:T 50:1, 4 h
Protocol: The human glioma cell lines (U87-MG and U251) were obtained from the Cell Bank of Type Culture Collection of the Chinese Academy of Science (Shanghai, China). […] A3656), valproic acid (VPA, CAS No. 99-66-1), and trichostatin A (TSA, CAS No. 58880-19-6) were purchased from Sigma-Aldrich Corporation (St. Louis, MO, USA). DAC and TSA were dissolved in DMSO to a concentration of 10 mM. Aliquots were stored at −80°C and diluted with media before being used. […] Four hours later, suspended cells were collected for CD107a flow cytometry, meanwhile, the supernatant was collected and analyzed with granzyme A and perforin ELISA kit (Cloud-Clone Corporation, Wuhan, China) at 450 nm, and the LDH kit (Promega, USA) at 490 nm. The percentage of specific lysis was calculated using the following formula: [(experimental release − spontaneous release)/(maximum release − spontaneous release)] × 100. […] Then, the cytotoxicity assay was measured and calculated as mentioned above.

U87 cell-derived tumors = assay: In vivo xenograft tumor model; design: species or system BALB/C nude female mice
Protocol: Eighteen BALB/C nude female mice aged 4 weeks were provided by the Guangxi Experimental Animal Center. The mice were placed in a light-controlled room at 24 ± 1 °C (light: 7:00–19:00 h, dark: 19:00–7:00 h) and fed under specific pathogen-free conditions. All protocols followed the guidelines of the National Research Council for the Care and Use of Laboratory Animals and were approved by the Animal Ethics Committee of Guangxi Medical University. To develop a xenograft model, 4 × 10^6 U87 cells were inoculated into the flanks of the mice subcutaneously. Two weeks later, mice simultaneously received intraperitoneal peritumorally injections of TSA (0.5 mg/kg) and 1 × 10^7 peptides loaded on CD8^+ T cells, respectively. Every […], tumor volumes were measured simultaneously with a caliper. Mice were sacrificed by euthanasia when visibly ill. Mice injected with negative peptide-induced CTLs and CTLs without peptides were included as controls. The tumor volumes were calculated using the following formula: tumor volume = [(width2 × length)/2].

T cells = assay: CFSE lymphocyte proliferation assay; format: cell-based, human; conditions: T cells with peptide-pulsed DCs, 96 h, flow cytometry
Protocol: CFSE assay was used to further detect the proliferation of T cells stimulated by peptide-pulsed DCs. The cells were suspended at 10^6/ml with RPMI1640 and added CFSE (5 μM/ml), then incubated at room temperature for 20 min. Fetal bovine serum (FBS, Gbico, USA) was added and incubated for 5 min to terminate the reaction, washed with PBS twice. Then, the peptide-incubated DC was added, incubated for 96 h, and performed flow cytometry analysis.

U251 = assay: LDH cytotoxicity assay and HLA block, U251; format: cell-based, human
Protocol: The human glioma cell lines (U87-MG and U251) were obtained from the Cell Bank of Type Culture Collection of the Chinese Academy of Science (Shanghai, China). Decitabine (DAC, CAS No. A3656), valproic acid (VPA, CAS No. 99-66-1), and trichostatin A (TSA, CAS No. 58880-19-6) were purchased from Sigma-Aldrich Corporation (St. Louis, MO, USA). DAC and TSA were dissolved in DMSO to a concentration of 10 mM. Aliquots were stored at −80°C and diluted with media before being used. Drug treatments were divided into seven groups: (1) DAC group: cells were cultured in medium on the presence of 1 μM DAC for 120 h; (2) VPA group: cells were grown in medium containing 1 mM VPA for 120 h; (3) TSA group: cells were cultured in medium supplemented with 1 μM TSA for 24 h; (4) D + V group: cells were cultured with 1 μM DAC and 1 mM VPA for 120 h; (5) D + T group: cells were cultured with 1 μM DAC for 120 h, followed by 1 μM TSA for 24 h; (6) Control group: cells were cultured with 0.09% DMSO, which is the highest concentration of DMSO used in this study in consideration of the potential toxicity of DMSO to living cells. Human recombinant interleukin (IL) IL-2, IL-4, and human recombinant granulocyte/macrophage colony-stimulating factor (GM-CSF) were purchased from R&D Systems.
The cytotoxic activity of MAGE-D4 peptide-specific CTLs to glioma cells was determined according to the instructions of the manufacturers by our published method ([31]). […] Four hours later, suspended cells were collected for CD107a flow cytometry, meanwhile, the supernatant was collected and analyzed with granzyme A and perforin ELISA kit (Cloud-Clone Corporation, Wuhan, China) at 450 nm, and the LDH kit (Promega, USA) at 490 nm. The percentage of specific lysis was calculated using the following formula: [(experimental release − spontaneous release)/(maximum release − spontaneous release)] × 100. […] Then, the cytotoxicity assay was measured and calculated as mentioned above.

| Compound | granzyme A and perforin secreted by T cells (U87) | tumor volume (U87 cell-derived tumors; U87 pre-treated with TSA versus U87, both inoculated with P8-specific T cells, TSA 0.5 mg/kg) | tumor growth (U87 cell-derived tumors; group treated with TSA versus group treated without TSA) | proliferation index (CFSE) (T cells; Figure 4B inset bottom left) | percentage of cells that divided at least once (CFSE) (T cells; Figure 4B inset top left) | cytotoxicity of peptide-specific T cells (specific lysis, LDH) (U251; DAC + TSA-treated U251, E:T 50:1, 4 h) | killing efficiency after HLA I block (U251; target cells pre-incubated with HLA-ABC antibody 50 μg/ml, 37°C 40 min, versus groups without anti-HLA antibodies, Figure 6I) | tumor volume (U87 cell-derived tumors; U87 xenograft, 1 × 10^7 peptide-specific CD8+ T cells, compared with DC + Tc and NC-DC + Tc groups) |
| --- | --- | --- | --- | --- | --- | --- | --- | --- |
| CC(/C=C/C(=O)NO)=C\[C@@H](C)C(=O)c1ccc(N(C)C)cc1 [TSA, trichostatin A] | more granzyme A and perforin | smaller | slower |  |  |  |  |  |
| CLPPPNVIL [Peptide P8] | the most granzyme A and perforin |  |  | highest | highest | cytotoxicity on the DAC + TSA-treated U251 cells with statistical significance | significantly decreased | significantly reduced |
